“Also recorded” adds a separate entry of the source.
Columns and labels:
Assay type in all cases: in vivo
[1] = tested on: endothelial glycocalyx (eGC); experiment: Gross inspection and TEM glycocalyx imaging of rat lungs after 1 h warm ischemia; details: for gross visual appearance of excised lungs: heparin 300 IU or NAH 300 μg i.v. before 1 h ischemia; for eGC ultrastructure in lung vasculature (TEM): heparin 300 IU or NAH 300 μg i.v. before 1 h warm ischemia, vs control
Protocol: (§1) Models of lungs with damaged or preserved eGC and rat orthotopic left lung transplantation. Rats were sedated with 4% isoflurane via inhalation for tracheostomy and then placed on a ventilator. They received 5% isoflurane with 100% O2 via inhalation through the ventilator for 15 min to induce a deep state of anesthesia that causes arrest of spontaneous breathing. The rats were disconnected from the ventilator 5 min after intravenous administration of heparin (300 IU), a heparin derivative without anti-coagulant properties (300 μg; N-acetyl heparin (NAH) (Millipore Sigma, Burlington, MA)), or saline (300 μl, control) through the jugular vein. Cardiac activity and blood oxygen saturation were monitored after disconnection from ventilator until cardiac arrest. One hour after induction of ischemia, a median thoracotomy was performed, and blood was flushed from the lungs with cold, low potassium dextran solution (PERFADEX; XVIVO Perfusion AB) through the pulmonary artery. Then, the heart-lung bloc was isolated and stored in cold PERFADEX for 6 h before transplantation.
TEM for glycocalyx imaging. To prepare the tissue for transmission electron microscopy imaging, blood was flushed from rat lungs with PBS via the pulmonary artery after 1 h of warm ischemia, then the lungs were perfused with a solution containing 2% glutaraldehyde, 2% sucrose, 0.1 M sodium cacodylate buffer (pH 7.3, Sigma), and 2% lanthanum nitrate (Sigma). Excised lung tissues were incubated with the same solution for 2 h at 4° C. for fixation. The fixed tissues were immersed in a 2% sucrose, 0.1 M sodium cacodylate buffer (pH 7.3) solution with 2% lanthanum nitrate overnight at 4° C. to stain the glycocalyx, then washed twice with an alkaline solution (0.03 mol/l NaOH) containing 2% sucrose. Following fixation and glycocalyx staining with lanthanum nitrate, the specimens were rinsed in PBS, post-fixed in 1% osmium tetroxide (Electron Microscopy Sciences, Hatfield, PA), rinsed in PBS a second time, dehydrated through a graded series of ethanol and propylene oxide (Electron Microscopy Sciences), and embedded using a Poly/Bed 812 (Luft formulations) Embedding Kit (Polysciences, Warrington, PA). Sections were cut on a Leica-Reichart Ultracut ultra-microtome (Leica Microsystems, Buffalo Grove, IL). Semi-thin (300 nm) sections were stained with 0.5% toluidine blue in 1% sodium borate (toluidine blue O and sodium borate, Fisher Scientific, Pittsburgh, PA) and examined under the light microscope. Ultrathin sections (65 nm) were stained with uranyl acetate and Reynold's lead citrate and examined on a JEOL 1400 transmission electron microscope (JEOL Peabody, MA) with a side-mount AMT 2 k digital camera (Advanced Microscopy Techniques, Danvers, MA).

rat lung grafts = experiment: Rat orthotopic left lung transplantation of donor-pretreated lungs: graft function, edema, histology, cell infiltration; details: for T-cell (CD3+) infiltration / macrophage (CD68+) infiltration / polymorphonuclear neutrophil (PMN) infiltration: 2 h after reperfusion; for T-cell (CD3+) infiltration / macrophage (CD68+) infiltration / wet-to-dry (W/D) ratio / polymorphonuclear neutrophil (PMN) infiltration: vs control; for congestion, swollen alveolar walls, secretions in the airways (H&E) / wet-to-dry (W/D) ratio / PaO2/FiO2 (P/F) ratio: 2 h after transplantation, donor pre-treatment; for PaO2/FiO2 (P/F) ratio: vs control lung grafts; for polymorphonuclear neutrophil (PMN) infiltration: naphthol staining
From the text: Study design. To investigate the stability of eGC in lung grafts and its potential influence on graft function and quality after reperfusion, we established rat models with damaged or preserved lung eGC and performed orthotopic, single, left-lung transplantation or EVLP using the lungs from these rats. Animals were randomly assigned 4 different groups; (1) native lungs (normal control), (2) Control: lungs with eGC damage, (3) Heparin: lungs with eGC preserved by heparin, and (4) NAH: lungs with eGC preserved by NAH. Shedding of the eGC was induced in vivo by donor systemic ischemia. After 1 h of ischemia in vivo, lungs were procured in a standardized fashion for lung transplantation then either directly transplanted or subjected to EVLP and assessed biologically. Native lungs were not subjected to any insult.
as §1
Orthotopic single-lung transplantation of the left lung was performed using the cuff method. Two hours after reperfusion, the naive lung was clamped, 100% 02 was administered for 5 min through a ventilator, and the recipient's blood was sampled from the graft pulmonary vein for blood gas analysis.
Wet-to-dry (W/D) weight ratio. The weight of the lung tissues was measured immediately after collection (wet weight). The lung tissue was then placed into a 60° C. oven to dry for 72 h. Tissues were weighed to deter-mine the dry weight, and the wet-to-dry ratio was calculated.
Tissue staining and histopathological analysis. Formalin-fixed, paraffin-embedded lung tissues collected 2 h after transplantation were sectioned to 4-μm thickness and stained with hematoxylin and eosin. The sections were also stained for immunofluorescent imaging using primary antibodies for CD3 (Invitrogen), CD68 (Invitrogen), or syndecan-1 (Santa Cruz), and Hoechst 33342 dye for nuclear staining. Primary antibody was detected by secondarily Cy5-conjugated goat anti-rabbit IgG (Invitrogen) and Cy3-conjugated goat anti-mouse IgG (Millipore Sigma).
Polymorphonuclear neutrophils (PMNs) were stained using a naphthol AS-D chloroacetate esterase staining kit (Millipore Sigma) and identified by nuclear morphology staining in bright red. Stained slides were scanned with a whole-slide image scanner (Axio Scan.Z1; Carl Zeiss) and analyzed with digital image processing software (ZEN lite blue edition; Carl Zeiss). Stained cells were counted by two investigators with the identity of the samples masked.

rat lungs = experiment: Ex vivo lung perfusion (EVLP) of donor-pretreated rat lungs; details: donor pre-treatment; for pulmonary vascular resistance (PVR) during EVLP: 3 h normothermic EVLP; for syndecan-1 concentration in EVLP perfusate: during EVLP, vs increasing levels in control; for Evans blue dye (EBD) penetration into lung parenchyma: last 30 min of EVLP, vs control
Protocol: Ex vivo lung perfusion in rats. EVLP was performed using a commercially available rodent EVLP system (IPL-2 Isolated Perfused Rat or Guinea Pig Lung System; Harvard Apparatus, Holliston, MA). After procurement, the lungs were kept under cold ischemia for 1 h, then placed on the EVLP system, ventilated with air warmed to 37′, and perfused with 100 ml STEEN solution (XVIVO Perfusion AB) that was deoxygenated with 6% O2, 8% CO2 and balanced N2 and supplemented with 50 mg of methylprednisolone (Solu-Medrol; Pfizer, Inc.) and 50 mg of cephalosporin (Cefazolin; West-Ward Pharmaceuticals Corp., Eatontown, NJ). […] Pulmonary artery pressure, peak airway pressure, and airway flow were monitored continuously, and lung compliance and PVR were calculated every hour.
Assessment of endothelial barrier function. After 3 h of EVLP, 6 mg of Evans blue dye (EBD, Millipore Sigma) was administered into the perfusate to assess vascular endothelial permeability. After 30 min of perfusion, the lung vascular bed was rinsed with 20 ml of PBS and pieces of lungs were incubated overnight in formamide (Millipore Sigma) at 60° C. Absorbance of the extractant was measured at 620 nm to quantitate the amount of EBD that had permeabilized into the tissue and was normalized to dry-tissue weight.
Determination of glycocalyx components in rat lung grafts. For rat lung tissue, syndecan-1 released into the perfusate during EVLP was measured with a rat-specific ELISA (Immunotag Rat SDC1 (Syndecan-1) ELISA, G-Biosciences, St. Louis, MO). Glycocalyx glycosaminoglycans (GAGs) were quantitated using the 1,9-dimethylmethylene blue (DMMB, Millipore Sigma) method with modifications. A 1 L solution of DMMB (pH˜3.0) was prepared by dissolving 16 mg DMMB in distilled H2O containing 3.04 g/A glycine, 1.6 g/A NaCl and 95 ml 0.1 M acetic acid. Briefly, 1 ml DMMB solution was added to 20 μl lung tissue lysate then incubated at room temperature for 1 h on a tube rotator. The tubes were then centrifuged at 14,000 rpm for 15 min at 4° C. Supernatants were carefully decanted, 200 μL sodium lauryl sulfate buffer (2.08 mM) was added to each pellet, and the tubes were vortexed until GAG-DMMB pellets were no longer visible. GAG content in each sample was measured spectrophotometrically at 656 nm.

Substance | gross visual appearance of excised lungs [1] | eGC ultrastructure in lung vasculature (TEM) [1] | T-cell (CD3+) infiltration (rat lung grafts) | macrophage (CD68+) infiltration (rat lung grafts) | congestion, swollen alveolar walls, secretions in the airways (H&E) (rat lung grafts) | wet-to-dry (W/D) ratio (rat lung grafts) | PaO2/FiO2 (P/F) ratio (rat lung grafts) | polymorphonuclear neutrophil (PMN) infiltration (rat lung grafts) | pulmonary vascular resistance (PVR) during EVLP (rat lungs) | syndecan-1 concentration in EVLP perfusate (rat lungs) | Evans blue dye (EBD) penetration into lung parenchyma (rat lungs)
heparin | no significant changes in appearance | preserved; also recorded: intact and adherent to the cell surface | significantly reduced | significantly reduced | not observed | lower | significantly higher | significantly reduced | little to no increase | maintained at a constant level | significantly less EBD penetration
N-acetyl heparin [NAH] | no significant changes in appearance | intact and adherent to the cell surface | significantly reduced | significantly reduced | not observed | lower | significantly higher | significantly reduced | little to no increase | maintained at a constant level | significantly less EBD penetration
